Test results as given in ChEMBL document CHEMBL2073924, “Carrier-mediated hepatic uptake of peptidic endothelin antagonists in rats” (J Pharmacol Exp Ther, 1999).
Peptide text beside a SMILES is read from it.

Tests used:
[1] = target: T1, Hepatic sodium/bile acid cotransporter (Rattus norvegicus, UniProt P26435); assay: TP_TRANSPORTER: uptake in Ntcp-expressing COS-7 cells; assay type: functional, cell-based; settings: monkey
T1 sequence (P26435 whole entry): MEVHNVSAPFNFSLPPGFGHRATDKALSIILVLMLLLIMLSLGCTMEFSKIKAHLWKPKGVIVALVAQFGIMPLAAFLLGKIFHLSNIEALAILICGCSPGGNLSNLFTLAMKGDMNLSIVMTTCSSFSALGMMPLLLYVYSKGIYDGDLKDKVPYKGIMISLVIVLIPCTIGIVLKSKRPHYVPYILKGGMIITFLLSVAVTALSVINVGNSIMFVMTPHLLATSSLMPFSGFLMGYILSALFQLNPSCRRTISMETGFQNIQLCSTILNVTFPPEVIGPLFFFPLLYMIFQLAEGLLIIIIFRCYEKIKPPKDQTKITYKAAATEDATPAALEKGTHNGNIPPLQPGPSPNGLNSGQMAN

[2] = target: T2, Solute carrier organic anion transporter family member 1A1 (Rattus norvegicus, UniProt P46720); assay: TP_TRANSPORTER: uptake in Oatp1-expressing COS-7 cells; assay type: functional, cell-based; settings: monkey
T2 sequence (P46720 whole entry): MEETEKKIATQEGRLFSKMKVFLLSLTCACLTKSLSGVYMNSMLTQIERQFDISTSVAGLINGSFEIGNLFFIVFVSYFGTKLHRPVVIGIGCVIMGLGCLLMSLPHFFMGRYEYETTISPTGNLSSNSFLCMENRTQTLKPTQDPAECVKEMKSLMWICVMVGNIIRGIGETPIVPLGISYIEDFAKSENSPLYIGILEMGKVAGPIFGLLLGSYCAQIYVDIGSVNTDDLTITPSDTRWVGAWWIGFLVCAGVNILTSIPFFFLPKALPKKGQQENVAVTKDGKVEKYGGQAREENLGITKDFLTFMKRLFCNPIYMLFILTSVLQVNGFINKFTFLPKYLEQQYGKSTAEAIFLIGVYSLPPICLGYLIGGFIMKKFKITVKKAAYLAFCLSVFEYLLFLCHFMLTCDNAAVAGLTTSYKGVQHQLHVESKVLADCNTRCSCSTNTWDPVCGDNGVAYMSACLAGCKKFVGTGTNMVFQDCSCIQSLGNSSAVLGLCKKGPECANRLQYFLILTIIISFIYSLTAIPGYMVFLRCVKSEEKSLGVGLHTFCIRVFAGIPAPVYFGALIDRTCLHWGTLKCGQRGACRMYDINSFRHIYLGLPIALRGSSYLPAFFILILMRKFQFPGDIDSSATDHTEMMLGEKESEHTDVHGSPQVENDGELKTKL

- Activity [1]: is not a substrate [-]
- Activity [2]: is not a substrate [-]
SMILES: CC(C)C[C@@H]1NC(=O)[C@@H](C(C)C)NC(=O)[C@@H]2CCCN2C(=O)[C@@H](CC(=O)O)NC(=O)[C@@H](Cc2c[nH]c3ccccc23)NC1=O [BQ-123] (HELM PEPTIDE1{L.[dW].[dD].P.[dV]}$PEPTIDE1,PEPTIDE1,1:R1-5:R2$$$V2.0)
